In paper PMC11984905, “Chiral Switch of Gadopiclenol: New Standards in MRI Probes” (Advanced Science, 2025):

Test: Stability, protonation and conditional stability constants (pGd) of Gd(III)-complexes (out-of-cell pH-potentiometry, 1H NMR relaxometry, competition with AAZTA)
Type: physicochemical
Details: for conditional stability higher than that of the racemic counterparts: logK^c GdL and pGd; for conditional stability higher than that of the racemic counterparts / pGd / logK^cGdL and pGd higher than that of the parent [Gd(PCTA)]: pH 7.4; for logK^c GdL: conditional stability constant at pH 7.4; for *logKGd(H2L): diprotonated out-of-cage intermediate; for pGd: pGd = -log[Gd^3+]free, [Gd^3+]tot = 1 µM, [L]tot = 10 µM; for logKGdLH-1: deprotonation of inner-sphere water; for stability constant of Gd(III)-complex higher than that of the racemic complex: vs [Gd(rac-L1)]3- and [Gd(rac-L2)]
Protocol: The protonation constants of ligands, the stability and protonation constants of Ca(II)‐ and Zn(II)‐complexes formed with rac‐L1, ent‐L1, rac‐L2, and ent‐L2 ligands were determined by pH‐potentiometric titration. The metal‐to‐ligand concentration ratio was 1:1 (the concentration of the ligand was generally 0.002 M). The protonation constants of the Cu(II)‐ and Gd(III)‐complexes were determined using pH‐potentiometry by titrating the pre‐prepared complexes from pH 2.0 to 12.0 with 0.2 M NaOH. The stability constants of the Gd(III)‐complexes with rac‐L1 and ent‐L1 ligands were determined by the “out‐of‐cell” technique because of their slow formation reaction. The pH range of the complexation equilibria and the time needed to reach the equilibria were determined by relaxometry. Eight–eight Gd(III) – rac‐L1 and Gd(III) – ent‐L1 samples were prepared, with pH values in the range of 1.7–3.0 at equilibrium ([Gd^3+] = [L] = 0.002 M). The samples were kept at 25 °C for 6 weeks to reach equilibrium. For the calculation of the stability constants of the [Gd(rac‐L1)]^3− and [Gd(ent‐L1)]^3− complexes, besides the protonation constants of ligands and the Gd(III) complexes, the stability constants of the di‐protonated [^*Gd(H2 rac‐L1)]^− and [^*Gd(H2 […])]^− out‐of‐cage complexes (considered as intermediates) was also used as fixed values, which were calculated from the pH‐potentiometric titration curve of the Gd(III) – rac‐L1 and Gd(III) – ent‐L1 system obtained in the pH range of 1.7–7.0.
For the pH measurements and titrations, the Metrohm 888 Titrando titration workstation Metrohm‐6.0234.110 combined electrode was used. Equilibrium measurements were carried out at a constant ionic strength (0.15 M NaCl) in 6 mL samples at 25 °C. The solutions were stirred, and N2 was bubbled through them. The titrations were made in the pH range 1.7–12.0. KH‐Phthalate (pH 4.005) and borax (pH 9.177) buffers were used to calibrate the pH meter. For the calculation of [H^+] from the measured pH values, the method proposed by Irving et al. was used as follows.^[ [46] ^] A 0.01M HCl solution was titrated with standardized NaOH solution at 0.15 M NaCl ionic strength. The differences (A) between the measured (pHread) and calculated pH (‐log[H^+]) values were used to obtain the equilibrium H^+ concentration from the pH values measured in the titration experiments (A = 0.02). For the equilibrium calculations, the stoichiometric water ionic product (pK w) was also needed in order to calculate [OH^−] values under basic conditions. The VNaOH – pHread data pairs of the HCl – NaOH titration obtained in the pH range 10.5–12.0 were used to calculate the pK w value (pK w = 13.83).
The stability constant of Gd(III)‐complexes with rac‐L2 and ent‐L2 ligands were determined by the measurement of the proton relaxation rates (r 1) studying the competition reaction of rac‐L2 and ent‐L2 ligands with AAZTA for Gd(III) ion at pH = 4.0 in 0.15 M NaCl solution. In these experiments, the concentration of Gd^3+, rac‐L2, and ent‐L2 ligands was 2.0 mM, while that of the AAZTA was varied between 1.0 and 6.0 mM (5 × 1.5 mL samples). The pH was adjusted to pH 4.0 by stepwise addition of concentrated NaOH or HCl solutions. The samples were kept at 70 °C for a month and then at 25°C for two months in order to attain the equilibrium (the time needed to reach the equilibria was determined by ^1H‐NMR relaxometry). ^1H‐NMR relaxometric measurement of Gd(III) – rac‐L2 – AAZTA and Gd(III) – ent‐L2 – AAZTA systems were performed with a Bruker Avance III 400 (9.4 T) equipped with BB inverse z gradient probe (5 mm). […]

SMILES	conditional stability higher than that of the racemic counterparts	logK GdL (0.15 M NaCl, 25 °C)	logKGdH2L (0.15 M NaCl, 25 °C)	logKGdH3L (0.15 M NaCl, 25 °C)	logKGdH4L (0.15 M NaCl, 25 °C)	logKGdHL (0.15 M NaCl, 25 °C)	logK^c GdL (0.15 M NaCl)	*logKGd(H2L) (0.15 M NaCl, 25 °C)	pGd (0.15 M NaCl)	logKGdLH-1 (0.15 M NaCl, 25 °C)	logK^cGdL and pGd higher than that of the parent [Gd(PCTA)]	stability constant of Gd(III)-complex higher than that of the racemic complex [logK unit]
O=C([O-])CCC(C(=O)[O-])N1CCN(C(CCC(=O)[O-])C(=O)[O-])Cc2cccc(n2)CN(C(CCC(=O)[O-])C(=O)[O-])CC1.[Gd+3] (racemic) [[Gd(ent‐L1)]^3−]	0.6 – 1.5 logK unit	–	–	–	–	–	–	–	–	–	–	–
O=C(O)CCC(C(=O)O)N1CCN(C(CCC(=O)O)C(=O)O)Cc2cccc(n2)CN(C(CCC(=O)O)C(=O)O)CC1 (racemic) [rac‐L1, 2,2’,2’’-[3,6,9,15-tetraazabicyclo[9.3.1]pentadeca-1(15),11,13-triene-3,6,9-triyl]tripentanedioic acid]	–	18.65(5)	4.43 (3)	4.35 (3)	2.25 (3)	5.32 (2)	15.34	3.58 (2)	16.33	–	–	–
O=C(CCC(C(=O)O)N1CCN(C(CCC(=O)NCC(O)CO)C(=O)O)Cc2cccc(n2)CN(C(CCC(=O)NCC(O)CO)C(=O)O)CC1)NCC(O)CO (racemic) [rac‐L2]	–	18.96 (7)	–	–	–	–	16.76	–	17.70	11.15 (4)	0.6 – 1.2 logK unit	–
O=C(CCC(C(=O)[O-])N1CCN(C(CCC(=O)NCC(O)CO)C(=O)[O-])Cc2cccc(n2)CN(C(CCC(=O)NCC(O)CO)C(=O)[O-])CC1)NCC(O)CO.[Gd+3] (stereo not drawn) [[Gd(ent‐L2)]]	0.6 – 1.5 logK unit	–	–	–	–	–	–	–	–	–	–	–
O=C(O)CCC(C(=O)O)N1CCN(C(CCC(=O)O)C(=O)O)Cc2cccc(n2)CN(C(CCC(=O)O)C(=O)O)CC1 (stereo not drawn) [ent‐L1]	–	20.17 (9)	4.52 (1)	4.15 (2)	–	5.28 (1)	16.85	4.00 (3)	17.80	–	0.6 – 1.2 logK unit	1.5
O=C(CCC(C(=O)O)N1CCN(C(CCC(=O)NCC(O)CO)C(=O)O)Cc2cccc(n2)CN(C(CCC(=O)NCC(O)CO)C(=O)O)CC1)NCC(O)CO (stereo not drawn) [ent‐L2]	–	20.36 (3)	–	–	–	–	17.31	–	18.27	11.66 (1)	0.6 – 1.2 logK unit	1.5
